Patent US20240148821A1, “PHARMACEUTICAL USE OF CYCLIC PEPTIDE COMPOUND” (CHUGAI SEIYAKU KABUSHIKI KAISHA, priority 2021, published 2024)
Bridge positions count the residues as written; N and C are the ends. Square brackets hold non-standard residues; d marks the D form. Peptide text beside a SMILES is read from it. * marks the point of attachment. hPhe(3-Cl-4-CF3) = N[C@@H](CCc1ccc(C(F)(F)F)c(Cl)c1)C(=O)O; hPhe(3-F,4-CF3) = N[C@@H](CCc1ccc(C(F)(F)F)c(F)c1)C(=O)O; NMePhe(2-CF3) = CN[C@@H](Cc1ccccc1C(F)(F)F)C(=O)O; NMePhe(4-CN) = CN[C@@H](Cc1ccc(C#N)cc1)C(=O)O; NMePhe(4-Cl) = CN[C@@H](Cc1ccc(Cl)cc1)C(=O)O; hPhe(4-Cl) = N[C@@H](CCc1ccc(Cl)cc1)C(=O)O; NMePhe(2-Me) = CN[C@@H](Cc1ccccc1C)C(=O)O; NMeAla(cPent) = CN[C@@H](CC1CCCC1)C(=O)O; NMeNva(5,5-F2) = CN[C@@H](CCC(F)F)C(=O)O; NMeGly(cPent) = CN[C@H](C(=O)O)C1CCCC1; Phe(3-I) = N[C@@H](Cc1cccc(I)c1)C(=O)O; Pro(4,4-F2) = O=C(O)[C@@H]1CC(F)(F)CN1; NMeCha = CN[C@@H](CC1CCCCC1)C(=O)O; NMeCba = CN[C@@H](CC1CCC1)C(=O)O; NMeChg = CN[C@H](C(=O)O)C1CCCCC1; NMeF = CN[C@@H](Cc1ccccc1)C(=O)O; NMeD = CN[C@@H](CC(=O)O)C(=O)O; NMeL = CN[C@@H](CC(C)C)C(=O)O; NEtAla = CCN[C@@H](C)C(=O)O; NMeV = CN[C@H](C(=O)O)C(C)C; d(β3hA) = C[C@@H](N)CC(=O)O; NMeS = CN[C@@H](CO)C(=O)O; Pip = O=C(O)[C@@H]1CCCCN1; dNMeS = CN[C@H](CO)C(=O)O; NMeA = CN[C@@H](C)C(=O)O; NMeAib = CNC(C)(C)C(=O)O; Nle = CCCC[C@H](N)C(=O)O; Piperidide = C1CCN(*)CC1; Ac5c = NC1(C(=O)O)CCCC1; Aze = O=C(O)[C@@H]1CCN1; Ac4c = NC1(C(=O)O)CCC1; Cyclopropyl = C1CC1*; Sar = CNCC(=O)O

System: Human pancreatic cancer cell line AsPC-1 (G12D mutation Kras)
Experiment: AsPC-1 cell growth inhibition (AsPC-1 CGI)
Format: cell-based
Conditions: read-out: AsPC-1 cell growth inhibition, 50% growth inhibitory concentration (IC50 value); 96 hours, CellTiter-Glo, values classified in ranges
Protocol: Test compounds were serially dilated with dimethyl sulfoxide, and 200 nL was then dispensed to a U-bottom 96-well plate using Labcyte Echo. […] The cell suspension was dispensed to a. plate containing a test compound at 100 μL per well and incubated at 37° C. in a 5% carbon dioxide gas incubator. 96 hours later, 80 μL of CellTiter-Glo (Promega) was added to each well and fluorescence was measured.

Structure (SMILES) | IC50 [µM]
CC[C@H](C)[C@@H]1NC(=O)[C@H](CC(C)C)N(C)C(=O)C[C@@H](C(=O)N2CCCCC2)N(C)C(=O)[C@H](C2CCCCC2)N(C)C(=O)C2(CCCC2)NC(=O)[C@H](Cc2ccccc2)N(C)C(=O)[C@H](CCc2ccc(C(F)(F)F)c(Cl)c2)NC(=O)CN(C)C(=O)[C@H](CC2CCCCC2)N(C)C(=O)[C@@H]2CCN2C(=O)CN(C)C1=O [Compound 527] ([NMeL]I[Sar][Aze][NMeCha][Sar][hPhe(3-Cl-4-CF3)][NMeF][Ac5c][NMeChg][NMeD]-Piperidide; lactam N-11) | > 0.5
CC[C@H](C)[C@@H]1NC(=O)[C@H](CC2CCC2)N(C)C(=O)C[C@@H](C)NC(=O)[C@H](C(C)C)N(C)C(=O)C2(CCCC2)NC(=O)[C@@H]2CCCN2C(=O)[C@H](CCc2ccc(C(F)(F)F)c(Cl)c2)NC(=O)CN(C)C(=O)[C@H](CC2CCCCC2)N(C)C(=O)CN(C)C(=O)CN(C)C1=O [Compound 230] (cyclo([Ac5c][NMeV][d(β3hA)][NMeCba]I[Sar][Sar][NMeCha][Sar][hPhe(3-Cl-4-CF3)]P)) | > 0.5
CC[C@H](C)[C@@H]1NC(=O)[C@H](CC(C)C)N(C)C(=O)C[C@@H](C)NC(=O)[C@H](C(C)C)N(C)C(=O)C2(CCCC2)NC(=O)[C@@H]2CCCN2C(=O)[C@H](CCc2ccc(C(F)(F)F)c(Cl)c2)NC(=O)CN(C)C(=O)[C@H](Cc2ccccc2C)N(C)C(=O)CN(C)C(=O)CN(C)C1=O [Compound 1614] (cyclo([Ac5c][NMeV][d(β3hA)][NMeL]I[Sar][Sar][NMePhe(2-Me)][Sar][hPhe(3-Cl-4-CF3)]P)) | > 0.5
CC[C@H](C)[C@@H]1NC(=O)[C@H](CC(C)C)N(C)C(=O)C[C@@H](C)NC(=O)[C@H](C2CCCCC2)N(C)C(=O)C2(CCCC2)NC(=O)[C@@H]2CCCN2C(=O)[C@H](CCc2ccc(C(F)(F)F)c(Cl)c2)NC(=O)CN(C)C(=O)[C@H](CC2CCCCC2)N(C)C(=O)CN(C)C(=O)CN(C)C1=O [Compound 593] (cyclo([Ac5c][NMeChg][d(β3hA)][NMeL]I[Sar][Sar][NMeCha][Sar][hPhe(3-Cl-4-CF3)]P)) | > 0.5
CC[C@H](C)[C@@H]1NC(=O)[C@H](CC(C)C)N(C)C(=O)C[C@@H](C(=O)N2CCCCC2)N(C)C(=O)[C@H](C(C)C)N(C)C(=O)C2(CCCC2)NC(=O)[C@@H](CO)N(C)C(=O)[C@H](CCc2ccc(C(F)(F)F)c(Cl)c2)NC(=O)CN(C)C(=O)[C@H](CC2CCCCC2)N(C)C(=O)[C@@H]2CCN2C(=O)[C@H](C)N(C)C1=O [Compound 1444] ([NMeL]I[NMeA][Aze][NMeCha][Sar][hPhe(3-Cl-4-CF3)][dNMeS][Ac5c][NMeV][NMeD]-Piperidide; lactam N-11) | > 0.5
CCCC[C@@H]1NC(=O)[C@H](CCc2ccc(C(F)(F)F)c(Cl)c2)NC(=O)CN(C)C(=O)[C@H](CC2CCCC2)N(C)C(=O)[C@@H]2CCN2C(=O)[C@H](C)N(C)C(=O)[C@H]([C@@H](C)CC)NC(=O)[C@H](CC(C)C)N(C)C(=O)C[C@@H](C(=O)N2CCCCC2)N(C)C(=O)[C@H](CC(C)C)NC(=O)C(C)(C)N(C)C1=O [Compound 691] ([NMeL]I[NMeA][Aze][NMeAla(cPent)][Sar][hPhe(3-Cl-4-CF3)][Nle][NMeAib]L[NMeD]-Piperidide; lactam N-11) | > 0.5
CC[C@H](C)[C@@H]1NC(=O)[C@H](C)N(C)C(=O)C[C@@H](C)NC(=O)[C@H](C2CCCC2)N(C)C(=O)C2(CCCC2)NC(=O)[C@@H]2CCCN2C(=O)[C@H](CCc2ccc(C(F)(F)F)c(Cl)c2)NC(=O)CN(C)C(=O)[C@H](Cc2ccc(Cl)cc2)N(C)C(=O)[C@@H]2CCCN2C(=O)CN(C)C1=O [Compound 549] (cyclo([Ac5c][NMeGly(cPent)][d(β3hA)][NMeA]I[Sar]P[NMePhe(4-Cl)][Sar][hPhe(3-Cl-4-CF3)]P)) | > 0.5
CCCC[C@@H]1NC(=O)[C@H](Cc2cccc(I)c2)NC(=O)CN(C)C(=O)[C@H](Cc2ccc(Cl)cc2)N(C)C(=O)CN(C)C(=O)CN(C)C(=O)[C@H]([C@@H](C)CC)NC(=O)[C@H](CC(C)C)N(C)C(=O)C[C@@H](C(=O)N2CCCCC2)N(C)C(=O)[C@H](CC(C)C)NC(=O)[C@H](Cc2ccccc2C(F)(F)F)N(C)C1=O [Compound 813] ([NMeL]I[Sar][Sar][NMePhe(4-Cl)][Sar][Phe(3-I)][Nle][NMePhe(2-CF3)]L[NMeD]-Piperidide; lactam N-11) | > 0.5
CC[C@H](C)[C@@H]1NC(=O)[C@H](CC(C)C)N(C)C(=O)C[C@@H](C(=O)N2CCCCC2)N(C)C(=O)[C@H](COC)N(C)C(=O)C2(CCCC2)NC(=O)[C@@H]2CCCN2C(=O)[C@H](CCc2ccc(C(F)(F)F)c(Cl)c2)NC(=O)CN(C)C(=O)[C@H](CC2CCCCC2)N(C)C(=O)CN(C)C(=O)CN(C)C1=O [Compound 850] ([NMeL]I[Sar][Sar][NMeCha][Sar][hPhe(3-Cl-4-CF3)]P[Ac5c][NMeS](Me)[NMeD]-Piperidide; lactam N-11) | > 0.5
CC[C@H](C)[C@@H]1NC(=O)[C@H](C)N(C)C(=O)C[C@@H](C)NC(=O)[C@H](C2CCCC2)N(C)C(=O)C2(CCC2)NC(=O)[C@@H]2CCCN2C(=O)[C@H](CCc2ccc(C(F)(F)F)c(Cl)c2)NC(=O)CN(C)C(=O)[C@H](CC2CCCCC2)N(C)C(=O)CN(C)C(=O)CN(C)C1=O [Compound 1506] (cyclo([Ac4c][NMeGly(cPent)][d(β3hA)][NMeA]I[Sar][Sar][NMeCha][Sar][hPhe(3-Cl-4-CF3)]P)) | > 0.5
CC[C@H](C)[C@@H]1NC(=O)[C@@H]2CCCCN2C(=O)C[C@@H](C(=O)N2CCCCC2)N(C)C(=O)[C@H](C(C)C)N(C)C(=O)C2(CCCC2)NC(=O)[C@@H]2CCCN2C(=O)[C@H](CCc2ccc(Cl)cc2)NC(=O)CN(C)C(=O)[C@H](CC2CCCCC2)N(C)C(=O)CN(C)C(=O)CN(C)C1=O [Compound 841] ([Pip]I[Sar][Sar][NMeCha][Sar][hPhe(4-Cl)]P[Ac5c][NMeV][NMeD]-Piperidide; lactam N-11) | > 0.5
CC[C@H](C)[C@@H]1NC(=O)[C@H](CC(C)C)N(C)C(=O)C[C@@H](C(=O)N2CCCCC2)N(C)C(=O)[C@H](COC2CC2)N(C)C(=O)C2(CCCC2)NC(=O)[C@@H]2CCCN2C(=O)[C@H](CCc2ccc(C(F)(F)F)c(Cl)c2)NC(=O)CN(C)C(=O)[C@H](CC2CCCCC2)N(C)C(=O)CN(C)C(=O)CN(C)C1=O [Compound 1857] ([NMeL]I[Sar][Sar][NMeCha][Sar][hPhe(3-Cl-4-CF3)]P[Ac5c][NMeS](Cyclopropyl)[NMeD]-Piperidide; lactam N-11) | > 0.5
CC[C@H](C)[C@@H]1NC(=O)[C@H](CC(C)C)N(C)C(=O)C[C@@H](C(=O)N2CCCCC2)N(C)C(=O)[C@H](C2CCCCC2)N(C)C(=O)C2(CCCC2)NC(=O)[C@@H]2CCCN2C(=O)[C@H](CCc2ccc(C(F)(F)F)c(Cl)c2)NC(=O)CN(C)C(=O)[C@H](CCC(F)F)N(C)C(=O)CN(C)C(=O)CN(C)C1=O [Compound 1647] ([NMeL]I[Sar][Sar][NMeNva(5,5-F2)][Sar][hPhe(3-Cl-4-CF3)]P[Ac5c][NMeChg][NMeD]-Piperidide; lactam N-11) | > 0.5
CC[C@H](C)[C@@H]1NC(=O)[C@H](C)N(C)C(=O)C[C@@H](C(=O)N2CCCCC2)N(C)C(=O)[C@H](C(C)C)N(C)C(=O)C2(CCCC2)NC(=O)[C@@H]2CCCN2C(=O)[C@H](CCc2ccc(C(F)(F)F)c(Cl)c2)NC(=O)[C@H]2CCCN2C(=O)[C@H](CC2CCCCC2)N(C)C(=O)CN(C)C(=O)CN(C)C1=O [Compound 135] ([NMeA]I[Sar][Sar][NMeCha][dP][hPhe(3-Cl-4-CF3)]P[Ac5c][NMeV][NMeD]-Piperidide; lactam N-11) | > 0.5
CC[C@H](C)[C@@H]1NC(=O)[C@H](C)N(CC)C(=O)C[C@@H](C)NC(=O)[C@H](C(C)C)N(C)C(=O)C2(CCCC2)NC(=O)[C@@H]2CCCN2C(=O)[C@H](CCc2ccc(C(F)(F)F)c(Cl)c2)NC(=O)CN(C)C(=O)[C@H](CC2CCCCC2)N(C)C(=O)CN(C)C(=O)CN(C)C1=O [Compound 196] (cyclo([Ac5c][NMeV][d(β3hA)][NEtAla]I[Sar][Sar][NMeCha][Sar][hPhe(3-Cl-4-CF3)]P)) | > 0.5
CC[C@H](C)[C@@H]1NC(=O)[C@H](CC(C)C)N(C)C(=O)C[C@@H](C(=O)N(C)C)N(C)C(=O)[C@H](C2CCCC2)N(C)C(=O)[C@H](C)NC(=O)[C@@H](C)NC(=O)[C@H](CCc2ccc(C(F)(F)F)c(Cl)c2)NC(=O)CN(C)C(=O)[C@H](CC2CCCCC2)N(C)C(=O)[C@@H]2CCN2C(=O)[C@H](C)N(C)C1=O [Compound 736] ([NMeL]I[NMeA][Aze][NMeCha][Sar][hPhe(3-Cl-4-CF3)][dA]A[NMeGly(cPent)][NMeD]-NMe2; lactam N-11) | > 0.5
CC[C@H](C)[C@@H]1NC(=O)[C@H](CC(C)C)N(C)C(=O)C[C@@H](C)NC(=O)[C@H](CC(C)C)N(C)C(=O)C2(CCCC2)NC(=O)[C@@H]2CC(F)(F)CN2C(=O)[C@H](CCc2ccc(C(F)(F)F)c(F)c2)NC(=O)CN(C)C(=O)[C@H](CC2CCCCC2)N(C)C(=O)CN(C)C(=O)CN(C)C1=O [Compound 1509] (cyclo([Ac5c][NMeL][d(β3hA)][NMeL]I[Sar][Sar][NMeCha][Sar][hPhe(3-F,4-CF3)][Pro(4,4-F2)])) | > 0.5
CCCC[C@@H]1NC(=O)[C@H](CCc2ccc(C(F)(F)F)c(Cl)c2)NC(=O)CN(C)C(=O)[C@H](Cc2ccc(Cl)cc2)N(C)C(=O)[C@@H]2CCN2C(=O)CN(C)C(=O)[C@H]([C@@H](C)CC)NC(=O)[C@@H]2CCCCN2C(=O)C[C@@H](C(=O)N2CCCCC2)N(C)C(=O)[C@H](CC(C)C)NC(=O)C(C)(C)N(C)C1=O [Compound 352] ([Pip]I[Sar][Aze][NMePhe(4-Cl)][Sar][hPhe(3-Cl-4-CF3)][Nle][NMeAib]L[NMeD]-Piperidide; lactam N-11) | > 0.5
CC[C@H](C)[C@@H]1NC(=O)[C@H](CC(C)C)N(C)C(=O)C[C@@H](C(=O)N2CCCCC2)N(C)C(=O)[C@H](C(C)C)N(C)C(=O)C2(CCCC2)NC(=O)[C@@H]2CCCN2C(=O)[C@H](CCc2ccc(C(F)(F)F)c(Cl)c2)NC(=O)CN(C)C(=O)[C@H](Cc2ccc(C#N)cc2)N(C)C(=O)CN(C)C(=O)CN(C)C1=O [Compound 867] ([NMeL]I[Sar][Sar][NMePhe(4-CN)][Sar][hPhe(3-Cl-4-CF3)]P[Ac5c][NMeV][NMeD]-Piperidide; lactam N-11) | > 0.5
